Laboratory results: patent publication US4029801A, “Pharmaceutical compositions and methods of treating hypertension” (priority 1970, dated 1977)
Like-named read-outs stand apart in the source and are kept apart here.

Legend:
[1] = molecular target: T1, histamine (Cavia porcellus, UniProt P31389); test: Antihistamine activity by the method of Alps et al.; details: for antihistamine activity: result in words
T1 construct: from tissue

[2] = test system: blood pressure and heart rate; test: Method 1 (rat): hypotensive activity in anaesthetised rats, i.v.; details: for minimal effective dose: Rattus norvegicus, iv; for Significant bradycardia (dose; decrease in heart rate of more than 30%): anaesthetised rat, i.v., cumulative dose
Experimental: Rats were anaesthetised with pentobarbitone sodium (60 mg/kg) and the jugular vein, trachea and carotid artery were cannulated. […] A decrease in heart rate of more than 30% from control values was considered to be significant bradycardia.

[3] = test system: systolic pressure; test: Method 2: anti-hypertensive activity in renal hypertensive rats; format: in vivo, rat
Experimental: Method 2 (hypertensive rats)
Male or female rats are rendered hypertensive by applying a figure of 8 ligature around one kidney and contralateral nephrectomy. Blood pressure stabilises at a hypertensive level after 6 weeks. Systolic pressure is measured indirectly using a Decker Caudal Plethysmograph A control group of rats is run with each group treated with drug. Each group usually consists of six rats. Drugs are usually administered by the IP or oral routes. Pressures are read prior to drug administration and at two and 24 hours thereafter.
Falls in systolic blood pressure 2 hr after an oral dose of 40 mg/kg: >50
mm, +++; 50-30 mm, ++; 30-15 mm, +; <15 mm, ±. g Oral dose of 75 mg/kg
h Oral dose of 10 mg/kg. i Oral dose of 2.5 mg/kg.

[4] = test system: α-adrenoceptor; test: α-Adrenoceptor antagonism on the guinea pig aortic strip; details: for α-blockade pA2: Table 4; for pA2 (α-adrenoceptor antagonism): guinea pig aortic strip; for α-adrenoceptor antagonism: result in words
Text: Carried out on the guinea pig aortic strip [Furchgott and Bhadrakom (1953) J. Pharmac. exp. Ther. 108, 129-143] by the method of Alps et al [Br. J. Pharmac. 1972 44, 52-62].

[5] = test system: blood pressure; test: Tests for action on the cardiovascular system: hypotensive activity (activity in method 1, rats or cats, or method 2), reported in words; format: in vivo, rat, cat; details: standard test procedure, result in words
Summary of the method: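 Method 1: pentobarbitone-anaesthetised cats, test compounds i.v. at 0.1-25.6 mg/kg, aortic blood pressure, heart rate and left ventricular pressure recorded. Method 2: renal hypertensive rats (figure-8 ligature plus contralateral nephrectomy, 6 weeks), dosed IP or orally; systolic pressure by tail plethysmography before and 2 and 24 h post-dose versus controls.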

[6] = Anti-inflammatory activity; format: in vivo; details: result in words
[7] = Depressant activity; format: in vivo; details: result in words
[8] = test system: blood pressure and heart rate; test: Method 1 (cat): blood pressure, heart rate and left ventricular pressure in anaesthetised cats, i.v.; format: in vivo; details: 3.2 mg/kg
Experimental: Cats were anaesthetised with pentobarbitone sodium (30 mg/kg) and the cephalic vein, femoral and carotid arteries and trachea were cannulated. The carotid cannula was introduced into the left ventricle and the femoral cannula into the aorta. Blood pressure and heart rate were recorded from the aortic cannula and left ventricular pressure from the carotid cannula. The test compunds were administered intravenously (0.1-25.6 mg/kg).

[9] = Anti-convulsant activity; format: in vivo; details: result in words
[10] = Antiarrhythmic activity; details: result in words
[11] = test system: oxotremorine; test: Antioxotremorine activity; format: in vivo; details: result in words
[12] = Acute toxicity (LD50) in the mouse; details: in vivo
[13] = test system: mouse; test: Acute toxicity (LD50) in the mouse; details: result in words
[14] = pA2 (antihistamine activity), Table 2
[15] = 0.25 h, read-out: Hypotensive Activity
[16] = read-out: Significant hypotension (dose; fall of 30 mm mercury or more in diastolic pressure)
[17] = Table 4, read-out: Antihistamine pA2 (converted)

T1 sequence (P31389 whole entry): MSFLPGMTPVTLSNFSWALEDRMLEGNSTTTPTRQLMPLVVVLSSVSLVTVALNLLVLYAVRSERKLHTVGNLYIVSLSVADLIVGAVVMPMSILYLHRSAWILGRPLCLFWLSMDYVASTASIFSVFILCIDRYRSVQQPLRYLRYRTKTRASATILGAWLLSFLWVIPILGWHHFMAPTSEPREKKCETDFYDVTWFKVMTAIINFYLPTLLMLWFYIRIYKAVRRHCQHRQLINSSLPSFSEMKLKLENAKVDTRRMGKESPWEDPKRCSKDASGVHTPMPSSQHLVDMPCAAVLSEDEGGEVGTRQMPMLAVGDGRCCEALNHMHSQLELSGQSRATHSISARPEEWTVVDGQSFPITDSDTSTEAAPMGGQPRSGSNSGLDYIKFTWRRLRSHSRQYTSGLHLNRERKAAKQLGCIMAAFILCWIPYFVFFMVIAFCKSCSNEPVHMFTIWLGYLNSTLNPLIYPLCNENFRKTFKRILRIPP

## O=C(CCCN1CCC(NC(=O)c2ccccc2)CC1)c1ccc(F)cc1 [Example 19, 1-[4-(4-Fluorophenyl)-4-oxobutyl]-4-benzamidopiperidine]
[1]; [14]
  Kb: 2.51 nM
[1]
  antihistamine activity: antihistamine
[2]; [15]
  minimal effective dose: 0.8 mg/kg
[2]; [16]
  minimal effective dose: 0.8 to 1.6 mg/kg
[2]
  Significant bradycardia (dose; decrease in heart rate of more than 30%): 1.6 mg/kg
[3]; hypertensive rat, 10 mg/kg p.o., from 188 mmHg
  Pressure reduced to: 138 mmHg
[4]
  α-blockade pA2: 7.5
  pA2 (α-adrenoceptor antagonism): 7.4
[5]
  hypotensive activity: marked hypotensive activity
[6]
  anti-inflammatory activity: antiinflammatory activity
[7]
  depressant activity: depressant
[8]
  Significant lowering of blood pressure: 38 mmHg
  cardiac effort index: lowered
  cardiac output: decreased
  heart rate lowered: 28.9%
  myocardial contractile force decreased: 25.7%

## O=C(NC1CCN(CCCC(O)c2ccc(F)cc2)CC1)c1ccccc1 (stereo not drawn) [Example 54, 1-[4-(p-Fluorophenyl)-4-hydroxybutyl]-4-benzamidopiperidine]
[1]; [14]
  Kb: 316 nM
[1]
  antihistamine activity: potent antihistamine activity
[2]; [15]
  minimal effective dose: 6.4 to 12.8 mg/kg
[2]; [16]
  minimal effective dose: 6.4 to 12.8 mg/kg
[2]
  Significant bradycardia (dose; decrease in heart rate of more than 30%): 6.4 to 12.8 mg/kg
[3]; hypertensive rat, 10 mg/kg, from 209 mmHg
  Pressure reduced to: 164 mmHg
[3]; hypertensive rat, 40 m.p.k.
  toxicity: Toxic
[4]
  pA2 (α-adrenoceptor antagonism): 6.6
[5]
  hypotensive activity: hypotensive activity

## O=C(NC1CCN(CC(O)c2ccc(Cl)c(Cl)c2)CC1)c1ccccc1 (stereo not drawn) [Example 36, 1-[2-(3,4-Dichlorophenyl)-2-hydroxyethyl]-4-benzamidopiperidine]
[2]; [15]
  minimal effective dose: < 30 mg/kg
[5]
  hypotensive activity: hypotensive
[9]
  anti-convulsant activity: anti-convulsant activities

## O=C(CCCN1CCC(NC(=O)c2ccccc2)CC1)c1ccccc1 [Example 43, 4-Benzamido-1-(4-phenyl-4-oxobutyl)piperidine]
[1]; [17]
  Kb: 0.251 nM
[1]; [14]
  Kb: 0.316 nM
[1]
  antihistamine activity: antihistamine
[2]; [15]
  minimal effective dose: 0.8 mg/kg
[2]; [16]
  minimal effective dose: 0.8 to 1.6 mg/kg
[2]
  Significant bradycardia (dose; decrease in heart rate of more than 30%): 0.8 to 1.6 mg/kg
[3]; Table 3, fall in systolic blood pressure 2 hr after oral dose of 40 mg/kg
  Anti-hypertensive Activity: + ++
[3]; hypertensive rat, 40 mg/kg p.o., from 174 mmHg
  Pressure reduced to: 122 mmHg
[4]
  pA2 (α-adrenoceptor antagonism): 7.7
  α-adrenoceptor antagonism: α-adrenoceptor antagonist
[10]
  antiarrhythmic activity: antiarrythmic activities
[5]
  hypotensive activity: marked hypotensive activity
[8]
  Significant lowering of blood pressure: 52 mmHg
  cardiac effort index: lowered
  cardiac output: lowered
  heart rate lowered: 35%
  myocardial contractile force decreased: 33%

## O=C(NC1CCN(CCc2ccc(Cl)cc2)CC1)c1ccccc1 [Example 48, 4-Benzamido-1-[2-(p-chlorophenyl)ethyl]piperidine]
[2]; [15]
  minimal effective dose: 6.4 to 12.8 mg/kg
[5]
  hypotensive activity: hypotensive activity
[9]
  anti-convulsant activity: anti-convulsant activity

## O=C(NC1CCN(CCc2ccc3ccccc3c2)CC1)c1ccccc1 [Example 13, 1-[2-(2-Naphthyl)ethyl]-4-benzamidopiperidine]
[1]; [17]
  Kb: 25.1 nM
[1]
  antihistamine activity: antihistamine
[2]; [15]
  minimal effective dose: 1.6 to 3.2 mg/kg
[4]
  α-blockade pA2: 7.4
  α-adrenoceptor antagonism: α-adrenoceptor antagonism
[10]
  antiarrhythmic activity: antiarrythmic activities
[5]
  hypotensive activity: hypotensive activity

## O=C(NC1CCN(CC(O)c2ccccc2)CC1)c1ccccc1 (stereo not drawn) [Example 20, 1-(2-Hydroxy-2-phenylethyl)-4-benzamidopiperidine]
[11]
  antioxotremorine activity: antioxotremorine activity
[1]
  antihistamine activity: antihistamine
[2]; [15]
  minimal effective dose: 6.4 to 12.8 mg/kg
[4]
  α-blockade pA2: 6.6
[5]
  hypotensive activity: hypotensive activity

## O=C(CCCN1CCC(NC(=O)c2ccccc2)CC1)c1ccc(O)cc1 [Example 63, 4-Benzamido-1-[4-(4-hydroxyphenyl)-4-oxobutyl]piperidine]
[1]; [17]
  Kb: 1.26 nM
[2]; [15]
  minimal effective dose: 25.6 mg/kg
[4]
  α-blockade pA2: 7.0
  α-adrenoceptor antagonism: α-adrenoceptor antagonism
[5]
  hypotensive activity: good hypotensive activity
[12]; ip
  LD50: 1630 mg/kg
  LD50 at 24 h: > 4000 mg/kg
[12]; po
  LD50: > 4000 mg/kg
[13]
  toxicity: remarkably low toxicity
